According to a compilation of properties of binary mixtures (doi:10.1016/j.jct.2020.106320):

Test: xn = mol fraction of the nth substance listed
Details: 100 kPa

Structure (SMILES): CC[n+]1ccn(CCOC)c1.N#C[S-] + CCO
- viscosity (288.15 K, x1 = 0.1): 2.39 mPa·s
- viscosity (288.15 K, x1 = 0.1999): 3.97 mPa·s
- viscosity (288.15 K, x1 = 0.3002): 6.39 mPa·s
- viscosity (288.15 K, x1 = 0.3995): 10.15 mPa·s
- viscosity (288.15 K, x1 = 0.5001): 15.11 mPa·s
- viscosity (288.15 K, x1 = 0.6): 24.1 mPa·s
- viscosity (288.15 K, x1 = 0.7): 33.1 mPa·s
- viscosity (288.15 K, x1 = 0.797): 53.1 mPa·s
- viscosity (288.15 K, x1 = 0.8964): 70.8 mPa·s
- viscosity (288.15 K, x1 = 1): 93.1 mPa·s
- viscosity (293.15 K, x1 = 0.1999): 3.53 mPa·s
- viscosity (293.15 K, x1 = 0.3002): 5.59 mPa·s
- viscosity (293.15 K, x1 = 0.5001): 12.79 mPa·s
- viscosity (293.15 K, x1 = 0.7): 27.1 mPa·s
- viscosity (293.15 K, x1 = 0.8964): 55.6 mPa·s
- viscosity (293.15 K, x1 = 1): 70.8 mPa·s
- viscosity (298.15 K, x1 = 0.1): 1.95 mPa·s
- viscosity (298.15 K, x1 = 0.1999): 3.16 mPa·s
- viscosity (298.15 K, x1 = 0.3995): 7.64 mPa·s
- viscosity (298.15 K, x1 = 0.5001): 10.96 mPa·s
- viscosity (298.15 K, x1 = 0.6): 17.44 mPa·s
- viscosity (298.15 K, x1 = 0.7): 22.7 mPa·s
- viscosity (298.15 K, x1 = 0.797): 34.3 mPa·s
- viscosity (298.15 K, x1 = 0.8964): 44.3 mPa·s
- viscosity (298.15 K, x1 = 1): 55.8 mPa·s
- viscosity (303.15 K, x1 = 0.1): 1.77 mPa·s
- viscosity (303.15 K, x1 = 0.1999): 2.85 mPa·s
- viscosity (303.15 K, x1 = 0.3995): 6.7 mPa·s
- viscosity (303.15 K, x1 = 0.5001): 9.52 mPa·s
- viscosity (303.15 K, x1 = 0.6): 14.4 mPa·s
- viscosity (303.15 K, x1 = 0.7): 19.4 mPa·s
- viscosity (303.15 K, x1 = 0.797): 28.2 mPa·s
- viscosity (308.15 K, x1 = 0.1): 1.613 mPa·s
- viscosity (308.15 K, x1 = 0.3002): 3.97 mPa·s
- viscosity (308.15 K, x1 = 0.3995): 5.93 mPa·s
- viscosity (308.15 K, x1 = 0.5001): 8.32 mPa·s
- viscosity (308.15 K, x1 = 0.6): 12.12 mPa·s
- viscosity (313.15 K, x1 = 0.1): 1.476 mPa·s
- viscosity (313.15 K, x1 = 0.1999): 2.34 mPa·s
- viscosity (313.15 K, x1 = 0.3002): 3.58 mPa·s
- viscosity (313.15 K, x1 = 0.5001): 7.34 mPa·s
- viscosity (313.15 K, x1 = 0.6): 10.4 mPa·s
- viscosity (313.15 K, x1 = 0.7): 14.37 mPa·s
- viscosity (313.15 K, x1 = 0.8964): 24.7 mPa·s
- viscosity (313.15 K, x1 = 1): 29.7 mPa·s
- viscosity (318.15 K, x1 = 0.1): 1.355 mPa·s
- viscosity (318.15 K, x1 = 0.3002): 3.25 mPa·s
- viscosity (318.15 K, x1 = 0.3995): 4.71 mPa·s
- viscosity (318.15 K, x1 = 0.5001): 6.51 mPa·s
- viscosity (318.15 K, x1 = 0.6): 9.03 mPa·s
- viscosity (318.15 K, x1 = 0.7): 12.25 mPa·s
- viscosity (318.15 K, x1 = 0.797): 17.33 mPa·s
- viscosity (318.15 K, x1 = 0.8964): 20.9 mPa·s
- viscosity (318.15 K, x1 = 1): 24.9 mPa·s

Structure (SMILES): CCO + CC[n+]1ccn(CCOC)c1.N#C[S-]
- viscosity (288.15 K, x2 = 0): 1.319 mPa·s
- viscosity (293.15 K, x2 = 0): 1.194 mPa·s
- viscosity (298.15 K, x2 = 0): 1.085 mPa·s
- viscosity (303.15 K, x2 = 0): 0.988 mPa·s
- viscosity (313.15 K, x2 = 0): 0.826 mPa·s
- viscosity (318.15 K, x2 = 0): 0.757 mPa·s
